T1: Ssal-KRED (Sporobolomyces salmonicolor, UniProt Q9UUN9, F97W/L241M/M242W/Q245S/L316M/T342M)
T1 construct: N-terminal 6xHis-tag, pET28b(+), purified; recombinant from E. coli
T1 sequence (Q9UUN9 2-343 F97W/L241M/M242W/Q245S/L316M/T342M): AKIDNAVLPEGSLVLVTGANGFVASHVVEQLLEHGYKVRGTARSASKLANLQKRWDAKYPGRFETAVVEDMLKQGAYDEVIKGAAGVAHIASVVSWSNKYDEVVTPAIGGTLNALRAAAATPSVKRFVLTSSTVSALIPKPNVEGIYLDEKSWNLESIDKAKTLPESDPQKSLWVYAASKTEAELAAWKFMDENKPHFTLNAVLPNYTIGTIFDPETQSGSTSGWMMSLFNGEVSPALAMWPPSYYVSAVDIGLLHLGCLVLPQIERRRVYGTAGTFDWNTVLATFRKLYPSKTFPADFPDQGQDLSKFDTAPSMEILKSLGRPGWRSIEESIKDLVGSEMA

T2: Ssal-KRED (Sporobolomyces salmonicolor, UniProt Q9UUN9)
T2 construct: N-terminal 6xHis-tag, pET28b(+), purified; recombinant from E. coli
T2 sequence (Q9UUN9 2-343): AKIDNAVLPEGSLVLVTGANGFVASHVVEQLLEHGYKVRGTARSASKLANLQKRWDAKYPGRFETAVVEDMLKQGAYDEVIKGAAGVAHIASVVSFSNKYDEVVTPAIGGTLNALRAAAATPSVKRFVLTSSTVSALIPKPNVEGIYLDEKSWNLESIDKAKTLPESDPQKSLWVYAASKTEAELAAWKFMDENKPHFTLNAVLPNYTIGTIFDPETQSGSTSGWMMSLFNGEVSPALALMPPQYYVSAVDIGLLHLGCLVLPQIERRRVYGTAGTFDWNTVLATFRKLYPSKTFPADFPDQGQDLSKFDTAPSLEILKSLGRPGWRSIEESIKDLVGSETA

T3: Ssal-KRED (Sporobolomyces salmonicolor, UniProt Q9UUN9, F97W/S224A/A238K/L241M/M242W/Q245S/Y246G/L316M/T342M)
T3 construct: N-terminal 6xHis-tag, pET28b(+), purified; recombinant from E. coli
T3 sequence (Q9UUN9 2-343 F97W/S224A/A238K/L241M/M242W/Q245S/Y246G/L316M/T342M): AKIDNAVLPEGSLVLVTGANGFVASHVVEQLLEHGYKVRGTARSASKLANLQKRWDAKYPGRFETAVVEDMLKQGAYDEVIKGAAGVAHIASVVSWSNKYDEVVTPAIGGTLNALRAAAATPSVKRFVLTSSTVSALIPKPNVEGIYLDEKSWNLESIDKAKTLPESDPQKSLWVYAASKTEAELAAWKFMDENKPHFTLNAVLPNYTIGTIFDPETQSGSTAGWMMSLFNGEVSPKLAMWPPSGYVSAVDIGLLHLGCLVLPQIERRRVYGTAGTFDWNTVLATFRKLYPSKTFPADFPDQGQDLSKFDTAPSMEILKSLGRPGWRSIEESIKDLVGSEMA

T4: Ssal-KRED (Sporobolomyces salmonicolor, UniProt Q9UUN9, F97W/T134V/S224A/A238K/L241M/M242W/Q245S/Y246G/L316M/T342M)
T4 construct: N-terminal 6xHis-tag, pET28b(+), purified; recombinant from E. coli
T4 sequence (Q9UUN9 2-343 F97W/T134V/S224A/A238K/L241M/M242W/Q245S/Y246G/L316M/T342M): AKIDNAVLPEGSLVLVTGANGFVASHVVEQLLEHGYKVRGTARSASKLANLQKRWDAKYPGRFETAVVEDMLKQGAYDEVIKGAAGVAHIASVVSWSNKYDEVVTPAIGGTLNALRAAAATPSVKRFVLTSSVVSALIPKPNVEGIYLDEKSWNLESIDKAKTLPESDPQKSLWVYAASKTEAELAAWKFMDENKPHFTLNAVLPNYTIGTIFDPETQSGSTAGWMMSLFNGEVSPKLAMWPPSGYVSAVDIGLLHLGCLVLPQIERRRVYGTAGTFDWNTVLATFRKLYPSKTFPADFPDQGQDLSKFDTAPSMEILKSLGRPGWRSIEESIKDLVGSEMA

T5: Ssal-KRED (Sporobolomyces salmonicolor, UniProt Q9UUN9, F97W/L241M/M242W/Q245S)
T5 construct: N-terminal 6xHis-tag, pET28b(+), purified; recombinant from E. coli
T5 sequence (Q9UUN9 2-343 F97W/L241M/M242W/Q245S): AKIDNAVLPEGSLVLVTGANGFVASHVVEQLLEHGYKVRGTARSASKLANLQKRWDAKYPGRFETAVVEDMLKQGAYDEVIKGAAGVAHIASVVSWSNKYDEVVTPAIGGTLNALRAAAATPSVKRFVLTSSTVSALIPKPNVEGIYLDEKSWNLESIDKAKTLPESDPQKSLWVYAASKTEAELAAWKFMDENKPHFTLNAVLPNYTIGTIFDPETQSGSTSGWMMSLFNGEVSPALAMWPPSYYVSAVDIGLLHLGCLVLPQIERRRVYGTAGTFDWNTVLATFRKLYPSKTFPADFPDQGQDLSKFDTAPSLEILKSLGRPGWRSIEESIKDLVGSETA

T6: Ssal-KRED (Sporobolomyces salmonicolor, UniProt Q9UUN9, F97W/A238K/L241M/M242W/Q245S/L316M/T342M)
T6 construct: N-terminal 6xHis-tag, pET28b(+), purified; recombinant from E. coli
T6 sequence (Q9UUN9 2-343 F97W/A238K/L241M/M242W/Q245S/L316M/T342M): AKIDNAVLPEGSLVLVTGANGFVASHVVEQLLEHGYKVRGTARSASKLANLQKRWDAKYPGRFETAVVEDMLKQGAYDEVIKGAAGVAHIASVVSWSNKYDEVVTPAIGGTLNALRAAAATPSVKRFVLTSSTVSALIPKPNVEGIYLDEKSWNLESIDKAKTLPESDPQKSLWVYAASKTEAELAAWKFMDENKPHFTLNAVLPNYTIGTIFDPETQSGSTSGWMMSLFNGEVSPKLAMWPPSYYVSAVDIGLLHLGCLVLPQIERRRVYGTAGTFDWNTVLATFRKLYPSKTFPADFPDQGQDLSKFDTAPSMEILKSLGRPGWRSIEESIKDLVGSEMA

B1: Ssal-KRED (Sporobolomyces salmonicolor; A238K/F97W/L241M/L316M/M242W/Q245S/T342M/Y246G) (protein)
chain: AKIDNAVLPEGSLVLVTGANGFVASHVVEQLLEHGYKVRGTARSASKLANLQKRWDAKYPGRFETAVVEDMLKQGAYDEVIKGAAGVAHIASVVSWSNKYDEVVTPAIGGTLNALRAAAATPSVKRFVLTSSTVSALIPKPNVEGIYLDEKSWNLESIDKAKTLPESDPQKSLWVYAASKTEAELAAWKFMDENKPHFTLNAVLPNYTIGTIFDPETQSGSTSGWMMSLFNGEVSPKLAMWPPSGYVSAVDIGLLHLGCLVLPQIERRRVYGTAGTFDWNTVLATFRKLYPSKTFPADFPDQGQDLSKFDTAPSMEILKSLGRPGWRSIEESIKDLVGSEMA
notes: N-terminal 6xHis-tag, pET28b(+), purified; recombinant from E. coli

How the values were obtained:
Ssal-KRED [1] = biological target: T1, Ssal-KRED; assay: UV assay at […] nm, Michaelis-Menten fit; assay type: biochemical; settings: apparent; NADP+/iPrOH as hydride donor; purified His-tagged enzyme; read-out: app. KM
Ssal-KRED [2] = biological target: T2, Ssal-KRED; assay: UV assay at […] nm, Michaelis-Menten fit; assay type: biochemical; settings: apparent; NADP+/iPrOH as hydride donor; purified His-tagged enzyme; read-out: app. KM
Ssal-KRED [3] = biological target: T3, Ssal-KRED; assay: UV assay at […] nm, Michaelis-Menten fit; assay type: biochemical; settings: apparent; NADP+/iPrOH as hydride donor; purified His-tagged enzyme; read-out: app. KM
Ssal-KRED [4] = biological target: T4, Ssal-KRED; assay: UV assay at […] nm, Michaelis-Menten fit; assay type: biochemical; settings: apparent; NADP+/iPrOH as hydride donor; purified His-tagged enzyme; read-out: app. KM
Ssal-KRED [5] = biological target: T5, Ssal-KRED; assay: UV assay at […] nm, Michaelis-Menten fit; assay type: biochemical; settings: apparent; NADP+/iPrOH as hydride donor; purified His-tagged enzyme; read-out: app. KM
Ssal-KRED [6] = biological target: T6, Ssal-KRED; assay: UV assay at […] nm, Michaelis-Menten fit; assay type: biochemical; settings: apparent; NADP+/iPrOH as hydride donor; purified His-tagged enzyme; read-out: app. KM
purified protein = substrate: C[C@@H]1CC(=O)c2ncnc(N3CCN(C(=O)OC(C)(C)C)CC3)c21; assay: purified protein; assay type: biochemical, Sporobolomyces salmonicolor; settings: apparent; NADP+/iPrOH as hydride donor; purified His-tagged enzyme; substrate saturation was not reached

| Molecule | Km (Ssal-KRED [1]) | Km (Ssal-KRED [2]) | Km (Ssal-KRED [3]) | Km (Ssal-KRED [4]) | Km (Ssal-KRED [5]) | Km (Ssal-KRED [6]) | Km (purified protein) | kcat (purified protein) | kcat/Km (purified protein) |
| --- | --- | --- | --- | --- | --- | --- | --- | --- | --- |
| C[C@@H]1CC(=O)c2ncnc(N3CCN(C(=O)OC(C)(C)C)CC3)c21 [1a, ketone 1a] | 175 ± 9.9 µM | 11.9 ± 1.1 µM | 472 ± 34.6 µM | 144 ± 5.5 µM | 163 ± 7.8 µM | 300 ± 7.9 µM |  |  |  |
| B1 |  |  |  |  |  |  | 1668 ± 103 µM | 0.763 ± 0.04 s⁻¹ | 458 M⁻¹ s⁻¹ |

From publication PMC10902378, “Effective engineering of a ketoreductase for the biocatalytic synthesis of an ipatasertib precursor” (Communications Chemistry, 2024)
